# Source: patent EP0605261B1, “Use of a flavone derivative as taste modifier and a method of modifying taste” (SAN-EI GEN F.F.I., INC., priority 1992, dated 1994)
# Assays:
# Type in all cases: in vivo
# [1] = Sensory test: stimulative smell associated with acetic acid and viscosity (toothpaste with karaya gum); settings: 0.0000001 part by weight of Compound 3 to 1 part, 9 panellers
# Procedure: Sorbitol was heated to 70°C, followed by adding sodium saccharine and silica slowly thereto and by stirring well. Then, water previously heated to 70°C, karaya gum, sodium lauryl sulfate and sodium hydroxide were added sequentially while stirring. Finally, flavor was added thereto to prepare toothpaste as a control. Alternatively, flavone derivative (I)-containing toothpaste was prepared by adding 0.0000001 part by weight of Compound 3 of the flavone derivative (I) to 1 part by weight of similarly prepared toothpaste.
# Sensory tests for obtained toothpaste were conducted by 9 panellers comprised of 6 males and 3 females.
# [2] = Five points evaluation test: saltiness and brackish taste modifying effect, salt / sodium L-glutamate solution; settings: average points of 5 panellers (2: no changes); for Saltiness Modifying Effect: Salt
# Procedure: Compound 3 of the flavone derivative (I) was used as a taste modifier. […] Alternatively, sample solutions were prepared by adding 1, 0.1, 0.01 ppm of Compound 3 to the standard solutions, respectively.
# Sensory tests were conducted by 5 trained panellers to examine saltiness modifying effect (so called saltiness adapting effect) and brackish taste modifying effect.
# (§1) Each sample solution was evaluated assuming that the standard solution has the point of 2.
# [3] = Sensory test (limiting method): enhancing the sourness of acid sugar solution; parameters: key: (equivalent citric acid content / citric acid content with flavone) × 100; settings: citric acid 1.000 (g), flavone derivative (I) 0.00001 (g), 8 panellers; for Value of enhancing the sourness Ascending system: ascending system (from low concentration); for Value of enhancing the sourness Descending system: descending system (from high concentration)
# Procedure: Compounds 1 to 11 of the flavone derivative (I) were used as a taste modifier to prepare acid sugar solution having compositions as follows:
# As a control, 21 types of acid sugar solutions are used. In the control, the flavone derivative (I) is removed from the above composition and the content of citric acid is varied from 1.000 g to 1.500 g by 0.025 g.
# Sensory tests were carried out by 8 trained panellers in accordance with a limiting method described in the Hand Book of Sensory evaluation, edited by Research Committee of sensory evaluation, Union of Japanese Scientists and Engineers, p.398 (1973) in use of acid sugar solutions containing respective flavone derivatives (I) and another acid sugar solutions having a various content of citric acid.
# As for the content of citric acid, two types sensory tests were conducted, one was an ascending system (testing from solution with low concentration) and another was a descending system (testing from solution with high concentration).
# The sensory evaluation was made by a value of enhancing the sourness. The value of enhancing the sourness was calculated by the following formula based on the content of citric acid in acid sugar solutions with varied concentration of citric acid, which has an equivalent stimulation with an acid sugar solution containing the flavone derivative (I) Value of enhancing the sourness = (content of citric acid in acid sugar solution sensed as an equivalent stimulation/content of citric acid in acid sugar solution containing the flavone derivative (I)) x 100 [formula]
# [4] = Sensory test: refreshness, its continuity and quality of taste (refreshing drink); settings: 0.2 g flavor composition H (0.000001(g) Compound 11) vs G, 8 panellers
# Procedure: Compound 11 of the flavone derivative (I) was used as a taste modifier. Refreshing drink containing the above flavor composition G (control) or H (containing the flavone derivative (I)) was prepared.
# First, 10 g of fructose/glucose sugar solution, 0.1 g of citric acid (crystal), 0.2 g of the flavor composition G and 88.5 g of water were mixed to dissolve, followed by heating up to 93 °C, immediately transmitted to a bottle and sealed. Then, it was cooled in water, thereby preparing flavone derivative (I) free refreshing drink.
# Alternatively, flavone derivative (I)-containing refreshing drink was prepared by the same method using the flavor composition H instead of the flavor composition G.
# Sensory tests for obtained refreshing drink were carried out by 8 panellers comprised of 6 males and 2 females at the age from 20 to 40.
# [5] = Sensory test: body and deliciousness (casing boiled fish paste); settings: 0.0001 (g) Compound 11, 8 panellers
# Procedure: Compound 11 of the flavone derivative (I) was used as a taste modifier. Ground fish meat, salt, starch, water and the flavone derivative (I) were mixed. In accordance with a general method, casing boiled fish paste containing the flavone derivative (I) was prepared. Alternatively, flavone derivative (I) free casing boiled fish paste was prepared by the same method as a control.
# Sensory tests for obtained casing boiled fish paste were conducted by 8 panellers comprised of 6 males and 2 females at the age from 20 to 40.
# [6] = Sensory test: sweetness and savor (ice cream); settings: 0.00001 w/w%, 10 panellers
# Procedure: Compound 2 of the flavone derivative (I) was used as a taste modifier. Ice cream containing 5 w/w% of sugar, 12 w/w% of fructose condensed milk and 10 w/w% of thick malt syrup as sweetening agents was used as a control. The control and ice cream containing 0.00001 w/w% of the flavone derivative (I) were made by a general method. Sensory tests for the sweetness and the savor were conducted by 10 trained panellers comprised of 6 males and 4 females at the age from 20 to 40.
# [7] = Five points evaluation test: saltiness and savor modifying effect (toothpaste containing salt); settings: average points of 5 panellers (2: no changes)
# Procedure: Compound 7 of the flavone derivative (I) was used as a taste modifier. To commercially available toothpaste (containing salt), the flavone derivative (I) was added in the amount of 1, 0.1 and 0.01 ppm respectively to prepare samples. Sensory tests were carried out for modifying effects of the saltiness and the savor of toothpaste. Flavone derivative (I) free toothpaste was used as a standard substance.
# The sensory tests were conducted by 5 trained panellers to examine saltiness modifying effect (so called saltiness adapting effect) and savor modifying effect.
# as §1
# [8] = Sensory test: savor (boiled fish paste); settings: 1.5 w/w% glycine, 0.0001 w/w%, 10 panellers
# Procedure: (§2) Compound 7 of the flavone derivative (I) was used as a taste modifier. In accordance with a general method, boiled fish paste containing 0.0001 w/w% of the flavone derivative (I) and flavone derivative (I) free boiled fish paste were prepared in use of 1.5 w/w% glycine. Sensory tests for the savor were conducted by 10 panellers comprised of 6 males and 4 females at the age from 20 to 40.
# [9] = Sensory test: stimulative smell associated with acetic acid (mayonnaise); settings: 0.001 mg of Compound 8 added, 9 panellers
# Procedure: Compound 8 of the flavone derivative (I) was used as a taste modifier. First, sugar, sodium glutamate and carrageenan were dissolved in water, followed by adding raw vinegar, salt and yolk. Then, corn salad oil was added portionwise while stirring, and emulsified by the use of colloid mill, thereby preparing mayonnaise as a control. Alternatively, flavone derivative (I)-containing mayonnaise was prepared by adding 0.001 mg of Compound 8 to mayonnaise that was similarly prepared.
# Sensory tests for obtained mayonnaise were conducted by 9 panellers comprised of 6 males and 3 females.
# [10] = Sensory test: enhancing the sourness (refreshing drink); settings: 0.0002 (g) Compound 4, vs control, 8 panellers
# Procedure: Compound 4 of the flavone derivative (I) was used as a taste modifier. Raw materials described below were mixed and stirred to dissolve. The solution was heated up to 93°C, immediately transmitted to a bottle and sealed. Then, it was cooled in water, thereby preparing refreshing drink having compositions as follows. A control was prepared by eliminating the compound 4 from the raw materials.
# Sensory tests of obtained refreshing drink were carried out by 8 panellers.
# [11] = Sensory test: sweetness and savor (sponge cake); settings: 22 w/w% white sugar, 0.0001 w/w%, 10 panellers
# Procedure: as §2, with “4” for “7”, “modifier and 22 w/w% of white sugar was used as a sweetening agent.” for “modifier.”, “sponge cake” for “boiled fish paste”, “prepared.” for “prepared in use of 1.5 w/w% glycine.”, “for the sweetness and” for “for”
molecule,measurement,setting,value
"COc1ccc(-c2cc(=O)c3c(OC)c(OC)c(OC)c(OC)c3o2)cc1 [Compound 3, 4',5,6,7,8-pentamethoxyflavone]",Stimulative smell: Those who sensed no difference,[1],1 number of people
same,Stimulative smell: Those who sensed the flavone derivative (I) additive is reduced,[1],8 number of people
same,Brackish Taste Modifying Effect,"[2]; 0.01 ppm, Salt 1 %",3.6
same,Brackish Taste Modifying Effect,"[2]; 0.01 ppm, Salt 3 %",3.6
same,Brackish Taste Modifying Effect,"[2]; 0.01 ppm, Salt 5 %",3.4
same,Brackish Taste Modifying Effect,"[2]; 0.01 ppm, Salt 10 %",3.0
same,Saltiness Modifying Effect,"[2]; 0.01 ppm, sodium L-glutamate 1 %",3.6
same,Saltiness Modifying Effect,"[2]; 0.01 ppm, sodium L-glutamate 3 %",3.8
same,Saltiness Modifying Effect,"[2]; 0.01 ppm, sodium L-glutamate 5 %",3.4
same,Saltiness Modifying Effect,"[2]; 0.01 ppm, sodium L-glutamate 10 %",3.0
same,Brackish Taste Modifying Effect,"[2]; 0.10 ppm, Salt 1 %",4.0
same,Brackish Taste Modifying Effect,"[2]; 0.10 ppm, Salt 3 %",3.8
same,Brackish Taste Modifying Effect,"[2]; 0.10 ppm, Salt 5 %",3.6
same,Brackish Taste Modifying Effect,"[2]; 0.10 ppm, Salt 10 %",3.4
same,Saltiness Modifying Effect,"[2]; 0.10 ppm, sodium L-glutamate 1 %",4.0
same,Saltiness Modifying Effect,"[2]; 0.10 ppm, sodium L-glutamate 3 %",3.8
same,Saltiness Modifying Effect,"[2]; 0.10 ppm, sodium L-glutamate 5 %",3.6
same,Saltiness Modifying Effect,"[2]; 0.10 ppm, sodium L-glutamate 10 %",3.4
same,Brackish Taste Modifying Effect,"[2]; 1.00 ppm, Salt 1 %",4.4
same,Brackish Taste Modifying Effect,"[2]; 1.00 ppm, Salt 3 %",4.0
same,Brackish Taste Modifying Effect,"[2]; 1.00 ppm, Salt 5 %",4.0
same,Brackish Taste Modifying Effect,"[2]; 1.00 ppm, Salt 10 %",3.8
same,Saltiness Modifying Effect,"[2]; 1.00 ppm, sodium L-glutamate 1 %",4.4
same,Saltiness Modifying Effect,"[2]; 1.00 ppm, sodium L-glutamate 3 %",4.0
same,Saltiness Modifying Effect,"[2]; 1.00 ppm, sodium L-glutamate 5 %",4.0
same,Saltiness Modifying Effect,"[2]; 1.00 ppm, sodium L-glutamate 10 %",3.8
same,Value of enhancing the sourness Ascending system,[3],120
same,Value of enhancing the sourness Descending system,[3],123
"3,3',4',5,5',6,7,8-octamethoxyflavone [Compound 11]",Value of enhancing the sourness Ascending system,[3],125
same,Value of enhancing the sourness Descending system,[3],128
same,Continuity of refreshness: Those who sensed H additive is better,[4],8 number of people
same,Continuity of refreshness: Those who sensed no difference,[4],0 number of people
same,Quality of taste: Those who sensed H additive is better,[4],6 number of people
same,Quality of taste: Those who sensed no difference,[4],2 number of people
same,Refreshness: Those who sensed H additive is better,[4],7 number of people
same,Refreshness: Those who sensed no difference,[4],1 number of people
same,Body: Those who sensed no difference,[5],2 number of people
same,Body: Those who sensed the flavone derivative (I) additive is better,[5],6 number of people
same,Deliciousness: Those who sensed no difference,[5],1 number of people
same,Deliciousness: Those who sensed the flavone derivative (I) additive is better,[5],7 number of people
same,Quality of taste: Those who sensed no difference,[5],1 number of people
same,Quality of taste: Those who sensed the flavone derivative (I) additive is better,[5],7 number of people
"COc1ccc(-c2cc(=O)c3c(OC)c(OC)c(OC)c(OC)c3o2)cc1OC [Compound 2, 3',4',5,6,7,8-hexamethoxyflavone]",Value of enhancing the sourness Ascending system,[3],118
same,Value of enhancing the sourness Descending system,[3],123
same,"the sweetness and the savor, as sensed by all the panellers",[6],better than that of the control
"COc1ccc(-c2oc3c(OC)c(OC)cc(OC)c3c(=O)c2OC)cc1OC [Compound 7, 3,3',4',5,7,8-hexamethoxyflavone]",Saltiness and Savor Modifying Effect: Saltiness,[7]; 0.01 ppm,2.2
same,Saltiness and Savor Modifying Effect: Savor,[7]; 0.01 ppm,2.2
same,Saltiness and Savor Modifying Effect: Saltiness,[7]; 0.10 ppm,2.6
same,Saltiness and Savor Modifying Effect: Savor,[7]; 0.10 ppm,2.4
same,Saltiness and Savor Modifying Effect: Saltiness,[7]; 1.00 ppm,3.4
same,Saltiness and Savor Modifying Effect: Savor,[7]; 1.00 ppm,3.0
same,Value of enhancing the sourness Ascending system,[3],116
same,Value of enhancing the sourness Descending system,[3],119
same,"the savor, as sensed by all the panellers",[8],better than that of the control
"COc1ccc(-c2cc(=O)c3c(OC)cc(OC)cc3o2)cc1 [Compound 8, 4',5,7-trimethoxyflavone]",Value of enhancing the sourness Ascending system,[3],118
same,Value of enhancing the sourness Descending system,[3],120
same,Stimulative smell: Those who sensed difference exists,[9],7 number of people
same,Stimulative smell: Those who sensed no difference,[9],2 number of people
"COc1ccc(-c2cc(=O)c3c(OC)cc(OC)c(OC)c3o2)cc1OC [Compound 4, 3',4',5,7,8-pentamethoxyflavone]",quality of taste,[10],significantly improved
same,taste of fruit juice and the sourness,[10],stronger than the control
same,Value of enhancing the sourness Ascending system,[3],117
same,Value of enhancing the sourness Descending system,[3],119
same,"the sweetness and the savor, as sensed by all the panellers",[11],better than that of the control
